Tested on: adalimumab producing cell line 1
Assay: Lys-C peptide mapping for MGO modification of adalimumab, cell line 1
Type: cell-based
Settings: Example 3
Text: Typical trypsin digestion for peptide mapping cleaves a denatured, reduced and alkylated protein at the carboxyl side of the two basic amino acids, lysine and arginine. Methylglyoxal (MGO) is a small molecule metabolite derived as a glycolysis byproduct which can modify arginine residues. A modification of an arginine prevents trypsin from cutting this site and results in a mis-cleavage. The challenge of quantifying the amount of MGO modified peptide is that, it is not compared to an equivalent non-modified peptide but rather to two parental cleaved peptides. The two parental cleaved peptides likely have different ionization potential as compared to that of the modified peptide. In order to determine a truly accurate direct measurement of an MGO-modified peptide, it is compared to its non-modified counterpart and expressed as a percentage. Using endoproteinase lysine-C as an alternative enzyme, cleavages only occur at lysine residues. The result is a direct comparison of the same peptide with and without an MGO modification, which provides a high degree of accuracy in quantifying even trace levels of the modified species.
Procedure: Samples were dilated to a nominal concentration of 4 mg/mL. 8 M guanidine-HCl was added to the sample in a 3:1 ratio resulting in a 1 mg/mL concentration in 6M guanidine-HCl. […] Samples were analyzed by LC/MS peptide mapping. […] Eluting peaks were monitored using a Thermo Scientific LTQ-Orbitrap Mass Spectrometer. Specific mass traces were extracted for both modified and non-modified peptides in order to accurately quantify the total amount of MGO modification at each site. Mass spectra were also analyzed for the specific region of the chromatogram to confirm the peptide identity.
The cells were grown to maximum viable cell densities (VCD) in the range of 10-14×10^6 cells/ml for the different conditions tested. […] Samples were subsequently analyzed using Poros A for titer and WCX-10 post protein A purification. Based on the WCX-10 chromatograms, the percentages of total peak(s) area corresponding to the acidic species were quantified. […]

Structure (SMILES): O=CC[C@@H](O)[C@H](O)[C@H](O)CO [Test 2DDG, 2-Deoxy-D-Glucose]
- MGO modification (2DDG 0.25 g/l alone, day 11 harvest, control 32.01%): 18.03%
- MGO modification (2DDG and temperature shift combined with arginine supplementation and/or lower pH): substantial reduction
- MGO protein modification (2DDG, temperature shift, lower pH and arginine supplementation all combined, day 11 harvest, control 32.01%): 0.02%
